EC50 data for 4 compounds are collected here from US7015246B2, “Benzofuran derivatives” (Bayer Aktiengesellschaft, priority 2001, dated 2006).

The structures appear in SMILES notation.

For the assay, the system named is thyroid hormone-regulated promoter (TRE) luciferase in HepG2 hepatocarcinoma cell. The assay is described as follows: T3 promoter assay cell test (luciferase reporter). To be noted: Homo sapiens; stably transfected HepG2 cells, luciferase induction; one range stated for the listed examples together; read-out: effect in the T3 promoter assay cell test. The format is cell-based. The protocol: The activity of the compounds according to the invention can be tested, for example, in vitro using the T3 Promoter Assay Cell test, which is described below:
The test is carried out using a stably transfected human HepG2 hepatocarcinoma cell which expresses a luciferase gene under the control of a thyroid hormone-regulated promoter. The vector which is used for the transfection carries a minimal thymidine kinase promoter, containing a thyroid hormone-responsive element (TRE) which consists of two inverted palindromes of in each case 12 bp and an 8 bp spacer, upstream of the luciferase gene.
For the test, the cell cultures are sown, in Eagle's minimal essential medium containing the following additions: glutamine, tricine [N(tris-(hydroxymethyl)-methyl)glycine], sodium pyruvate, non essential amino acids, (L-Ala, L-Asn, L-Asp, L-Pro, L-Ser, L-Glu, Gly), insulin, selenium and transferrin, in 96-well plates. The cultures are grown for 48 hours at 37° C. and under a 10% CO2 atmosphere. After that, serial dilutions of test substance or reference compound (T3, T4) and costimulator retinoic acid are added to the test cultures and the latter are incubated for a further 48 or 72 hours as before. Each substance concentration is tested in four replicates. In order to determine the luciferase which is induced by T3 or other substances, the cells are then lyzed by adding a buffer containing Triton and luciferin (from Promega) and immediately measured luminometrically.
In general terms: In a reporter assay the amount or activity of a reporter protein is the signal.

Take `CCOC(=O)CC1Cc2c(cc(C)c(Oc3ccc(O)c(C(C)C)c3)c2C)O1` (stereo not shown) [Example 28, Ethyl [5-(4-hydroxy-3-isopropylphenoxy)-4,6-dimethyl-2,3-dihydro-1-benzofuran-2-yl]acetate]: the EC50 lay in the range of 0.0005 to 0.24 µM.

With `CCOC(=O)c1cc2c(Br)c(Oc3ccc(O)c(C(=O)c4ccc(F)cc4)c3)c(Br)cc2o1` [Example 32, Ethyl 4,6-dibromo-5-[3-(4-fluorobenzoyl)-4-hydroxyphenoxy]-1-benzofuran-2-carboxylate], the EC50 is 0.0005 to 0.24 µM.

Regarding `Cc1cc2oc(C(=O)O)cc2c(C)c1Oc1ccc(O)c(C(C)C)c1` [Example 17, 5-(4-Hydroxy-3-isopropylphenoxy)-4,6-dimethyl-1-benzofuran-2-carboxylic acid], the EC50 lay within 0.0005 to 0.24 µM.

Consider `CCOC(=O)Cc1coc2c(C)c(Oc3ccc(OC)c(C(C)C)c3)c(C)cc12` [Example 18, Ethyl 2-[6-(3-isopropyl-4-methoxyphenoxy)-5,7-dimethyl-1-benzofuran-3-yl]acetate], for which the EC50 was in the range of 0.0005 to 0.24 µM.
